“Also recorded” adds a separate entry of the source. Where only a bound is given, the exact number is not on record here.

Experiment [1] is described as follows: Free radical scavenging assay (DPPH). As for the experimental part:
The test samples were prepared in 50% DMSO at 500 µM. Seventy microliters of DPPH solution (500 µM in methanol) was added to 96 well plate. The assay mixture was adjusted to 80 µL volume by methanol. After adjusting the volume, 20 µL of test compounds was added to each well. The reaction plate was incubated at room temperature in dark for 30 min. The absorbance was measured at 517 nm by using infinite 200 pro^TM, Tecan. Ascorbic acid was used as a positive control. Percent inhibition was calculated and compounds showing activity were evaluated for the IC50 values.

Another experiment concerns the target T1, β-Secretase (BACE1) (Homo sapiens, UniProt P56817).
T1 construct: purchased Sino Biological
The experiment in a line: β-Secretase inhibition assay (fluorogenic substrate IV). Type of experiment: biochemical. The note with it: for inhibition at 25 µM: read-out: BACE1 % Inhibition (at 25 µM) (±SEM). As for the experimental part: β-Secretase enzyme was reconstituted with 50 mM Tris (pH 7.5), 10% glycerol to yield concentration of 0.5 unit/µL. The enzyme stock solution was diluted with 100 mM sodium acetate buffer (pH 4.5) to 0.01 unit/µL. Thirty microliters of enzyme solution were added to each well that contained 20 µL of 5% DMSO of test compound. Then, fifty microliters of 50 µM β-secretase substrate IV from Calbiochem were added to the reaction plate. […] The assays were run in triplicate.

Experiment [2] is described as follows: Fe (II) chelation capacity assay (ferrozine). As for the experimental part: An aqueous solution of 0.2 mM ferrous sulphate was prepared. Fifty microliters of this solution was added to 96 well plate, then 40 µL of 500 µM of test compounds in 50% DMSO were added to each well followed by DI water to adjust the volume to 150 µL. The mixtures were incubated at room temperature for 10 min. After incubation, 50 µL of 1 mM ferrozine (Sigma) was added to the reaction mixture. The absorbance was measured at 562 nm by using infinite 200 pro^TM, Tecan. EDTA was used as a positive control. Chelation capacity of each compounds were calculated. Compounds having chelating capacity over than 50% were evaluated for stoichiometric ratio of compound: metal.

Experiment [3] has as its target T2, amyloid-β (1-42) peptide (Homo sapiens, UniProt P05067).
T2 construct: Stock solution of amyloid-β (1-42) peptide (Anaspec; 1384 µM in 1% NH4OH); purchased Anaspec
The experiment can be described thus: Amyloid β aggregation assay (ThT fluorescence). To be noted: Aβ(1-42), 48 h; for inhibition at 100 µM: read-out: Anti-Aβ aggregation % Inhibition (at 100 µM) (±SEM). The format is biochemical. As for the experimental part: Nine microliters amyloid-β solution was added to a greiner transparent 96 well plate. One microliter of each test compounds (1,000 µM in DMSO) were added to each well and mixed gently by tapping. The final concentrations of each compound were 100 µM in 10% DMSO. The reaction plate was incubated in dark at 37 °C for 48 h. After incubation, 200 µL of 5 µM ThT (Sigma) in 50 mM Tris buffer (pH 7.4) was added to each well. The fluorescence was measured at Ex = 446 nm and Em = 490 nm by using SpectraMax Gemini EM^TM [30]. The assays were run in triplicate.

Experiment [4] addresses T2, amyloid-β (1-42) peptide. The experiment in a line: Amyloid β aggregation assay (ThT fluorescence). The format is biochemical. To be noted: Aβ(1-42), read-out: Anti-Aβ aggregation IC50.
For another experiment, the system named is SH-SY5Y cells. The experiment can be described thus: Protection against Aβ1-42 induced neuronal cell death, MTT viability assay. The format is cell-based. The note with it: compound 1 μM. As for the experimental part:
The SH-SY5Y cells were cultured in a medium containing minimum essential medium (MEM): F-12 (1:1), 10% fetal bovine serum, MEM non-essential amino acids (0.5×), 0.5 mM sodium pyruvate and 100 units/ml of penicillin and 100 μg/mL of streptomycin. The cells were maintained under a humidified incubator with 5% CO2 in air at 37 °C.
SH-SY5Y cells were seeded in 96-well plates (2 × 10^4 cells per well) for 24 h. […] The aggregated β-amyloid was prepared by incubating in a medium without serum, penicillin and streptomycin at 37 °C for 72 h. The cells treated with aggregated β-amyloid were incubated for 24 h, 15 µL of MTT reagent (5 mg/mL MTT in serum free medium containing […]) was added to each well and incubated at 37 °C for 3 h. The medium was removed from each well. One hundred microlitres of 0.04 N HCl in isopropanol was added to each well to dissolve blue formazan crystals, which is the product of MTT catalyzed by mitochondrial dehydrogenase. The absorbance was measured at 570/630 nm using a Synergy^TM HT multi-detection microplate reader (Bio-Tek Instruments, Winooski, VT, USA).
On the technique in general: Tetrazolium assays rely on reduction of a dye to a coloured formazan, in cell work by metabolically active cells.

T1 sequence (P56817 46-501): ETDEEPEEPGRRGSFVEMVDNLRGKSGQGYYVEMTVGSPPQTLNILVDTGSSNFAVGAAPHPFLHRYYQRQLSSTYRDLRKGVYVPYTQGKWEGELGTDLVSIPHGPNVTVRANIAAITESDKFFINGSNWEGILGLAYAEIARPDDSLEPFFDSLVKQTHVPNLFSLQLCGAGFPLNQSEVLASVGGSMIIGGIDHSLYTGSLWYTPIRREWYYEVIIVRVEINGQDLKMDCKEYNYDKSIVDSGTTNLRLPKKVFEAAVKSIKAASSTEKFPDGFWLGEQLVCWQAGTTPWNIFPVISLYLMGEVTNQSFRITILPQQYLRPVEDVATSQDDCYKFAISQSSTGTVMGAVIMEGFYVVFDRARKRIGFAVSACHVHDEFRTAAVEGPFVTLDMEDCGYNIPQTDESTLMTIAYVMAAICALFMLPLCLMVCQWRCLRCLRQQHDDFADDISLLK
T2 sequence (P05067 672-713 limits assumed): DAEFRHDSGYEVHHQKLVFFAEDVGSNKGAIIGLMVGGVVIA

Regarding `O=C1O[C@H]([C@@H](O)CO)C(O)=C1O` [Ascorbic acid, reference compound], in experiment [1], the 50% inhibitory concentration (IC50) was determined as 94.9 µM and the “DPPH % Inhibition (at 100 µM) (±SEM)” value is 53.64 (±0.11) %.

For the molecule `CC(C)(C)c1ccc(-c2cn(C[C@@H]3Cc4c([nH]c5ccccc45)CN3)nn2)cc1` [Compound 6a, (S)-3-((4-(4-tert-Butylphenyl)-1H-1,2,3-triazol-1-yl)methyl)-2,3,4,9-tetrahydro-1H-pyrido[3,4-b] indole], at β-Secretase (BACE1), the midpoint of inhibition, the IC50, lay at 19.8 µM and the inhibition at 25 µM came to 68%. Besides, the “Fe chelation % Capacity (at 100 µM) (±SEM)” value in experiment [2] is 9.67 (±0.32) %.

As to `COc1ccc2cc(-c3cn(C[C@@H]4Cc5c([nH]c6ccccc56)CN4)nn3)ccc2c1` [Compound 6b, (S)-3-((4-(6-Methoxynaphthalen-2-yl)-1H-1,2,3-triazol-1-yl)me-thyl)-2,3,4,9-tetrahydro-1H-pyrido-[3,4-b]indole], on β-Secretase (BACE1), the midpoint of inhibition, the IC50, lay at 18.9 µM and the inhibition at 25 µM was 73.6%. Besides, at amyloid-β (1-42) peptide [3], the inhibition at 100 µM was 7.19%. In addition, the “Fe chelation % Capacity (at 100 µM) (±SEM)” value in experiment [2] is 12.35 (±0.68) %.

In the case of `Clc1ccc(-c2cn(C[C@@H]3Cc4c([nH]c5ccccc45)CN3)nn2)cc1Cl` [Compound 6c, (S)-3-((4-(3,4-Dichlorophenyl)-1H-1,2,3-triazol-1-yl)methyl)-2,3,4,9-tetrahydro-1H-pyrido[3,4-b]-indole], on β-Secretase (BACE1), the IC50 is 18 µM and the inhibition at 25 µM is 78.9%. Also, the inhibition at 100 µM at amyloid-β (1-42) peptide [3] came out at 10.1%. Moreover, in experiment [2], the “Fe chelation % Capacity (at 100 µM) (±SEM)” value is 15.88 (±0.21) %.

With `O=C(NCc1cn(C[C@@H]2Cc3c([nH]c4ccccc34)CN2)nn1)c1ccccc1C(=O)c1ccc(O)cc1` [Compound 6d], the inhibition at 25 µM at β-Secretase (BACE1) came out at 14.1%. Also, the “Fe chelation % Capacity (at 100 µM) (±SEM)” value in experiment [2] is given as 32.86 (±0.19) %. For the same molecule, the “DPPH % Inhibition (at 100 µM) (±SEM)” value in experiment [1] was 2.81 (±0.37) %.

As to `O=C(CCc1ccc(O)cc1)NCc1cn(C[C@@H]2Cc3c([nH]c4ccccc34)CN2)nn1` [Compound 6e, (S)-3-((4-(N-(((4-Hydroxyphenyl)propanoyl)azyl)methyl)-1H-1,2,3-triazol-1-yl)methyl)-2,3,4,9-tetra-hydro-1H-pyrido[3,4-b]ind ole], the inhibition at 25 µM at β-Secretase (BACE1) is 12.6%. In addition, the “Fe chelation % Capacity (at 100 µM) (±SEM)” value in experiment [2] is recorded as 20.63 (±0.35) %. Further, the “DPPH % Inhibition (at 100 µM) (±SEM)” value in experiment [1] is 5.45 (±0.33) %.

Turning to `COc1cc(/C=C/C(=O)NCc2cn(C[C@@H]3Cc4c([nH]c5ccccc45)CN3)nn2)ccc1O` [Compound 6g, (S)-3-((4-(N-(((E)-(3-Methoxy-4-hydroxyphenyl)propenoyl)azyl)methyl)-1H-1,2,3-triazol-1-yl)-methyl)-2,3,4,9-tetrahydro-1H-pyrido[3,4-b]indole], the inhibition at 25 µM on β-Secretase (BACE1) came out at 21.1%. The inhibition at 100 µM at amyloid-β (1-42) peptide [3] was more than 50%. The “Fe chelation % Capacity (at 100 µM) (±SEM)” value in experiment [2] is given as 8.88 (±0.25) %. Further, in experiment [1], the IC50 was found to be 106 µM and the “DPPH % Inhibition (at 100 µM) (±SEM)” value is listed as 47.03 (±0.12) %. Also, the IC50 at amyloid-β (1-42) peptide [4] came out at 82.9 µM.

Turning to `O=C(/C=C/c1ccc(O)c(O)c1)NCc1cn(C[C@@H]2Cc3c([nH]c4ccccc34)CN2)nn1` [Compound 6h, (S)-3-((4-(N-(((E)-(3,4-Dihydroxyphenyl)propenoyl)azyl)methyl)-1H-1,2,3-triazol-1-yl)methyl)-2,3,4,9-tetrahydro-1H-pyrido[3,4-b]indole], at β-Secretase (BACE1), the inhibition at 25 µM worked out at 21.7%. The “Fe chelation % Capacity (at 100 µM) (±SEM)” value in experiment [2] is recorded as 42.74 (±0.30) %. Moreover, in experiment [1], half-maximal inhibition (IC50) required 42.9 µM and the “DPPH % Inhibition (at 100 µM) (±SEM)” value is 92.29 (±0.02) %. The “Protective effect against Aβ1-42 induced neuronal cell death (MTT viability)” value (from here on “Protective effect”) with SH-SY5Y cells was “significantly greater than those of the potent single target compound, BACE1 inhibitor IV; also recorded: decrease cell death to a greater extent than BACE1 inhibitor IV; also recorded: better than that of single targeted ligands”. For the same molecule, on amyloid-β (1-42) peptide [4], the half-inhibitory concentration (IC50) was determined as 29.9 µM.

Regarding `CC(C)(C)c1ccc(-c2cn(C[C@@H](N)Cc3c[nH]c4ccccc34)nn2)cc1` [Compound 12a, (S)-1-(4-(4-tert-Butylphenyl)-1H-1,2,3-triazol-1-yl)-3-(1H-indol-3-yl)propan-2-amine], the inhibition at 25 µM on β-Secretase (BACE1) is 18.9%. In addition, the inhibition at 100 µM on amyloid-β (1-42) peptide [3] is 17.8%. Also, in experiment [2], the “Fe chelation % Capacity (at 100 µM) (±SEM)” value is 42.65 (±1.07) %.

Consider `N[C@@H](Cc1c[nH]c2ccccc12)Cn1cc(CNC(=O)c2ccccc2C(=O)c2ccc(O)cc2)nn1` [Compound 12d, (S)-N-((1-(2-Amino-3-(1H-indol-3-yl)propyl)-1H-1,2,3-triazol-4-yl)methyl)-2-(4-hydroxybenzoyl)-benzamide], for which the inhibition at 25 µM at β-Secretase (BACE1) was 33%. Besides, the “Fe chelation % Capacity (at 100 µM) (±SEM)” value in experiment [2] is on record as 13.87 (±0.59) %. Further, in experiment [1], the “DPPH % Inhibition (at 100 µM) (±SEM)” value is 1.56 (±0.51) %. The IC50 on amyloid-β (1-42) peptide [4] turned out to be 47.5 µM.

With `N[C@@H](Cc1c[nH]c2ccccc12)Cn1cc(CNC(=O)CCc2ccc(O)cc2)nn1` [Compound 12e, (S)-N-((1-(2-Amino-3-(1H-indol-3-yl)propyl)-1H-1,2,3-triazol-4-yl)methyl)-3-(4-hydroxyphenyl)propanamide], the inhibition at 25 µM at β-Secretase (BACE1) was found to be 7.53%. Further, the inhibition at 100 µM at amyloid-β (1-42) peptide [3] worked out at 36%. Moreover, the “Fe chelation % Capacity (at 100 µM) (±SEM)” value in experiment [2] is given as 41.42 (±1.13) %.

For the molecule `N[C@@H](Cc1c[nH]c2ccccc12)Cn1cc(CNC(=O)/C=C/c2ccc(O)c(O)c2)nn1` [Compound 12h, (S,E)-N-((1-(2-Amino-3-(1H-indol-3-yl)propyl)-1H-1,2,3-triazol-4-yl)methyl)-3-(3,4-dihydroxy-phenyl)acrylamide], the inhibition at 25 µM at β-Secretase (BACE1) is 40%. Further, in experiment [1], the IC50 was 92.7 µM and the “DPPH % Inhibition (at 100 µM) (±SEM)” value is given as 50.58 (±0.17) %. For the same molecule, in the experiment with SH-SY5Y cells, the “Protective effect” value is “significantly greater than those of the potent single target compound, BACE1 inhibitor IV; also recorded: decrease cell death to a greater extent than BACE1 inhibitor IV; also recorded: better than that of single targeted ligands”. Also, the IC50 on amyloid-β (1-42) peptide [4] was found to be 56.4 µM.

For the molecule `COc1cc(/C=C/C(=O)CC(=O)/C=C/c2ccc(O)c(OC)c2)ccc1O` [Curcumin, reference compound], the inhibition at 100 µM on amyloid-β (1-42) peptide [3] stood at 82.9%.

Turning to `O=C(O)CN(CCN(CC(=O)O)CC(=O)O)CC(=O)O` [EDTA, reference compound], in experiment [2], the “Fe chelation % Capacity (at 100 µM) (±SEM)” value was 98.00 (±0.34) %.

With `C[C@@H](NC(=O)c1cc(C(=O)N[C@@H](Cc2ccccc2)[C@H](O)CNC2CC2)cc(N(C)S(C)(=O)=O)c1)c1ccccc1` [Inh IV, reference compound], in the experiment with SH-SY5Y cells, the “Protective effect” value is “improved cell viability”.

“(S)-1-(1H-Indol-3-yl)-3-(4-(6-methoxynaphthalen-2-yl)-1H-1,2,3-triazol-1-yl)propan-2-amine [Compound 12b]”: the “BACE1 % Inhibition (at 25 µM) (±SEM)” value on β-Secretase (BACE1) (25 µM) was 30.42 (±3.54) %. The “Anti-Aβ aggregation % Inhibition (at 100 µM) (±SEM)” value on amyloid-β (1-42) peptide [3] is listed as 34.02 (±10.13) %. The “Fe chelation % Capacity (at 100 µM) (±SEM)” value in experiment [2] is recorded as 10.54 (±0.22) %.

The IC50 is the concentration that gives 50% inhibition. For orientation: inhibition means the drop in the measured response relative to a control, in per cent.

Source of the values: publication PMC3618987, “From BACE1 Inhibitor to Multifunctionality of Tryptoline and Tryptamine Triazole Derivatives for Alzheimer’s Disease” (Molecules, 2012).
